Results on 5 compounds are retold here after patent US20240254138A1, “TRICYCLIC PYRIMIDINES AS CYCLIN-DEPENDENT KINASE 7 (CDK7) INHIBITORS” (JANSSEN PHARMACEUTICA NV, priority 2021, published 2024).

Read-outs that look alike come from different tables or passages of the source.

Series [1] deals with RNA Polymerase II Serine 5 phosphorylation in A549 cells overexpressing CDK7-mutant (C312S). The series can be described thus: Imaging-based cellular RNA PolII Ser5 phosphorylation assay in A549 cells overexpressing CDK7-mutant (C312S). The series is classed as cell-based, human. The following applies: Homo sapiens, A549, A549 cells overexpressing CDK7-mutant (C312S); RNA PolII Ser5 phosphorylation; averaged over all measurements; read-out: CDK7_A549 mutant hCDK7(pIC50) (converted). The procedure, abridged: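 A549 cells overexpressing CDK7 C312S (with endogenous wild-type CDK7) were treated with compound for 3 h at 37 °C in 1% FBS medium. Phospho-Rpb1 CTD Ser5 was immunostained after fixation and imaged. IC50 came from curve fit of % control, normalised to DMSO and 10 μM reference-compound controls.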

Series [2] has as its target CDK7/cyclinH/MAT1 trimeric complex (Homo sapiens, UniProt P50613). Nature of the series: In vitro CDK7 assay, potency of irreversible covalent inhibitors (kinact/KI), coupled PK/LDH ADP readout at 340 nm. To be noted: for Ki: CDK7 (20 nM enz.) (KI, μM), 20 nM enzyme; for kinact: read-out: CDK7 (20 nM enz.) (kinact, s^−1), 20 nM enzyme.
Series [3] relates to RNA Polymerase II Serine 5 phosphorylation (Rpb1 CTD, downstream substrate of CDK7) in A549 cells. Nature of the series: Imaging-based cellular RNA PolII Ser5 phosphorylation assay in A549 cells. The series is classed as cell-based, human. The following applies: Homo sapiens, A549, A549 cells, wild-type CDK7; RNA PolII Ser5 phosphorylation; averaged over all measurements; read-out: CDK7_A549 Wild-type CDK7 (pIC50) (converted). The procedure, abridged: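 A549 cells, seeded 1000/well in DMEM with 1% FBS and cultured 20 h, were treated with compound for 3 h at 37 °C. Ser5-phospho-Rpb1 CTD detected by immunofluorescence imaging after fixation and methanol permeabilization; IC50 from curve fit normalized to DMSO and 10 μM reference-compound controls.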

[4] abbreviates: read-out: CDK7 (20 nM enz.) (kinact/KI, M^−1*s^−1), 20 nM enzyme.
Where [5] appears, read: read-out: CDK7 (20 nM enz.) (kobs/[I], M^−1*s^−1), 20 nM enzyme.

By melting point is commonly meant the temperature, or range, at which the solid turns liquid. Usually kinact stands for the rate constant of inactivation at saturating inhibitor.

Sequence of CDK7/cyclinH/MAT1 trimeric complex (P50613 whole entry): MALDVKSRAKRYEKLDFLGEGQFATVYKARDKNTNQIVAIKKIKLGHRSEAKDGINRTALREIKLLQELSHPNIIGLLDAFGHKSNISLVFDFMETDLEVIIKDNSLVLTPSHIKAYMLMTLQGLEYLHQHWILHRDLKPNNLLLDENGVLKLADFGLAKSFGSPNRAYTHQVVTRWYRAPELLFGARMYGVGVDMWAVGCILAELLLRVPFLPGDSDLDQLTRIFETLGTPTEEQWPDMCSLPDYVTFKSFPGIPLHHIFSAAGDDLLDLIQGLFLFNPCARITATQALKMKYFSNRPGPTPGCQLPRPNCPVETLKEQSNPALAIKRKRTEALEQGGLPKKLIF
Sequence of CDK7/cyclinH/MAT1 trimeric complex (P51946 whole entry partner): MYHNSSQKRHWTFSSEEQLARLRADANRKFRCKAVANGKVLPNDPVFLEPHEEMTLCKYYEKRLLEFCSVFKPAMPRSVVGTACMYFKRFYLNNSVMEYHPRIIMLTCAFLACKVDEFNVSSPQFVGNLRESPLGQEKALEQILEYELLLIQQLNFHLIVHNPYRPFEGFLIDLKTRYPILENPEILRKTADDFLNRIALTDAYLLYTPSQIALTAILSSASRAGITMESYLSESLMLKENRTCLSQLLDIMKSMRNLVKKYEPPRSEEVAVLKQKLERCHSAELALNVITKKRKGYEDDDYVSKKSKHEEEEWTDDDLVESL
Sequence of CDK7/cyclinH/MAT1 trimeric complex (P51948 whole entry partner): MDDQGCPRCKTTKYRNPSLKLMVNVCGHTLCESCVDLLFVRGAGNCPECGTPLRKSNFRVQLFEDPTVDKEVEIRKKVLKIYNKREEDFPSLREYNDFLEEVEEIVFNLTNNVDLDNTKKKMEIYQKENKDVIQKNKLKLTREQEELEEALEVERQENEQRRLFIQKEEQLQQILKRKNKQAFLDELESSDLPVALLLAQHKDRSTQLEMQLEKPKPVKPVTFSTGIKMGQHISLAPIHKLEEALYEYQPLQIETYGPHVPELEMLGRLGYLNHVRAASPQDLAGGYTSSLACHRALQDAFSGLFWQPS

Compound `CC#CC(=O)N1CC(N2CCC(c3cc4c(c(C)n3)OCc3c(N5CCOCC5)ccnc3N4)CC2)C1` [Compound 279] gave a melting point of 178.5 °C. For the same compound, in series [1], the IC50 was over 10000 nM. Further, in series [2], the Ki is 0.233 µM and the kinact was determined as 2.96e-05 s⁻¹. Further, in series [2] (setting [4]), the kinact/KI came out at 127 M⁻¹ s⁻¹. Further, in series [3], the IC50 was 138 nM.

Compound `C=CC(=O)N1CC(N2CCC(c3cc4c(c(C#N)n3)OCc3c(N5CCOCC5)ccnc3N4)CC2)C1` [Compound 306] came in with a melting point of 256.7 °C. Also, the IC50 in series [1] was over 10000 nM. For the same compound, the kinact/KI in series [2] (setting [5]) worked out at 1170 M⁻¹ s⁻¹. For the same compound, the IC50 in series [3] is 123 nM.

Turning to `CC#CC(=O)N1CC(N2CCC(c3cc4c(c(-c5ncc[nH]5)n3)OCc3c(N5CCOCC5)ccnc3N4)CC2)C1` [Compound 369], the melting point was 229.2 °C. The IC50 in series [1] is over 10000 nM. Moreover, in series [2], the Ki amounted to 0.0216 µM and the kinact came to 3e-05 s⁻¹. For the same compound, in series [2] (setting [4]), the kinact/KI turned out to be 1390 M⁻¹ s⁻¹. Besides, the IC50 in series [3] is 245 nM.

For the compound `C=CC(=O)N1CC(N2CCC(c3cc4c(c(-c5ncc[nH]5)n3)OCc3c(N5CCOCC5)ccnc3N4)CC2)C1` [Compound 378], the melting point amounted to 195.5 °C. In series [1], the IC50 was over 3980 nM. In series [2] (setting [5]), the kinact/KI was 1740 M⁻¹ s⁻¹. Moreover, the IC50 in series [3] is 162 nM.

The compound `CC#CC(=O)N1CC(N2CCC(c3cc4c(c(C5CC5)n3)OCc3c(N5CCOCC5)ccnc3N4)CC2)C1` [Compound 403] yielded a melting point of 174.8 °C. Moreover, the IC50 in series [1] is over 10000 nM. For the same compound, in series [2], the Ki came out at 0.0766 µM and the kinact was 4.63e-05 s⁻¹. In addition, in series [2] (setting [4]), the kinact/KI stood at 605 M⁻¹ s⁻¹. Moreover, the IC50 in series [3] was 155 nM.
